Test results as given in US20170087174A1, “COMBINATION THERAPY REGIMEN FOR TREATMENT OF HCV” (JANSSEN PHARMACEUTICALS, INC., priority 2015, published 2017).
Where two headings read alike, the source gives them in different places.

Key:
[1] = PK of single agents vs fixed dose combinations (FDC), single oral dose in healthy volunteers; type: in vivo, human; settings: for Cmax / AUC(0-t) / AUC(0-inf) / Tmax: human, plasma, oral; for Cmax: read-out: Cmax (mean ± SD); for AUC(0-t): read-out: AUClast (mean ± SD); for AUC(0-inf): read-out: AUC∞ (mean ± SD); for Tmax: read-out: tmax (median [range])
Method: SMV (100 mg), ODV (50 mg), and Compound (III) (800 mg) were administered as three different formulations or together as single doses in vivo to healthy volunteers. The arms of the study included: • Arm 1 (Reference Arm): Single oral doses of single agents, one SMV 100-mg capsule, one ODV 50-mg tablet as granule layered solid dispersion with copovidone and poloxamers, and two Compound (III) 400-mg tablets, administered together. • Arm 2: Single oral dose of fixed dose combination (FDC02): SMV 100 mg+ODV 50 mg as a spray dried solid dispersion with HPMC-AS L in a ratio ODV/HPMC-AS L 1/1 w/w+Compound (III) 800 mg • Arm 3: Single oral dose of fixed dose combination (FDC04): SMV 100 mg+ODV 50 mg as a spray dried solid dispersion with HPMC-AS L in a ratio ODV/HPMC-AS L 1/3 w/w+Compound (III) 800 mg • Arm 4: Single oral dose of fixed dose combination (FDC01): SMV 100 mg+ODV 50 mg as a spray dried solid dispersion with copovidone and poloxamers+Compound (III) 800 mg
PK parameters, including Cmax, tmax, AUClast, and AUC∞ were measured for Compound (III), ODV, SMV, and metabolites Compound A-I and Compound A-3 for each Arm of the study. Arms that included fixed dose combinations (FDC) (Arm 2, Arm 3, and Arm 4) were then compared to a single oral dose (Arm 1, the reference Arm). Table 9, Table 10, Table 11, Table 12 and Table 13 display relevant PK parameters and FIG. 9, FIG. 10, FIG. 11, FIG. 12, and FIG. 13 depict the plasma concentration over time of SMV, ODV, Compound A-1, and Compound A-3 for each Arm of the study.

[2] = system: CYP (cytochrome P450 enzymes); assay: CYP inhibition in vitro
[3] = Phase 2a open-label combination study: pharmacokinetics (exposure); type: in vivo, human; settings: in vivo
Method: A randomized, Phase 2a, open-label study was carried out to evaluate the safety, pharmacokinetics and efficacy of the combination of Compound (III), Odalasvir and Simeprevir in Genotype 1 treatment-naïve subjects with chronic hepatitis C. Other treatment-naïve subjects included Genotype 2, 3, 4, 5 and 6.
The aim of the study was to determine the efficacy, pharmacokinetics (PK), and safety of Compound (III)+Odalasvir±SMV in HCV-infected subjects.
This was an open-label study evaluating various dosing regimens of Compound (III)+Odalasvir±SMV for 6-8 weeks in treatment-naïve HCV-infected subjects with varying clinical characteristics (e.g., GT 1 or 3, presence/absence of compensated Child Pugh A cirrhosis). Efficacy, PK and safety evaluations were conducted during and through 24 weeks post dosing. Up to 15 cohorts were enrolled; data was generated from cohorts that have completed dosing.

[4] = Arm 1 (reference): single agents together
[5] = Arm 2 (FDC02) vs reference (Arm 1)
[6] = Arm 3 (FDC04) vs reference (Arm 1)
[7] = Arm 4 (FDC01) vs reference (Arm 1)
[8] = Arm 1 (reference): single agents together, SMV 100-mg capsule, ODV 50-mg tablet, two Compound (III) 400-mg tablets
[9] = Arm 2: FDC02, SMV 100 mg + ODV 50 mg (ODV/HPMC-AS L 1/1 w/w) + Compound (III) 800 mg
[10] = Arm 3: FDC04, SMV 100 mg + ODV 50 mg (ODV/HPMC-AS L 1/3 w/w) + Compound (III) 800 mg
[11] = Arm 4: FDC01, SMV 100 mg + ODV 50 mg (copovidone and poloxamers) + Compound (III) 800 mg

t1/2term (mean ± SD) [1, 4]	Least Square Means Ratio, AUClast [1, 5]	Least Square Means Ratio, Cmax [1, 5]	t1/2term (mean ± SD) ([1]; Arm 2: FDC02)	Least Square Means Ratio, AUClast [1, 6]	Least Square Means Ratio, Cmax [1, 6]	t1/2term (mean ± SD) ([1]; Arm 3: FDC04)	Least Square Means Ratio, AUClast [1, 7]	Least Square Means Ratio, Cmax [1, 7]	t1/2term (mean ± SD) ([1]; Arm 4: FDC01)	Cmax [1, 8]	AUC(0-t) [1, 4]	AUC(0-inf) [1, 4]	Tmax [1, 4]	Cmax [1, 9]	AUC(0-t) ([1]; Arm 2: FDC02)	AUC(0-inf) ([1]; Arm 2: FDC02)	Tmax ([1]; Arm 2: FDC02)	Cmax [1, 10]	AUC(0-t) ([1]; Arm 3: FDC04)	Compound	further results
2.6 ± 1.4 h	103.24%	102.81%	2.3 ± 0.6 h	115.78%	119.82%	2.9 ± 1.5 h	116.82%	123.77%	2.5 ± 0.7 h	163 ± 61.8 ng/mL	800 ± 307 ng·h/mL	823 ± 311 ng·h/mL	3 h	163 ± 45.2 ng/mL	790 ± 157 ng·h/mL	817 ± 133 ng·h/mL	3 h	189 ± 49.7 ng/mL	895 ± 223 ng·h/mL	C[C@H](NP(=O)(O)OC[C@@]1(F)O[C@@H](n2ccc(=O)[nH]c2=O)[C@](C)(O)[C@@H]1O)C(=O)O [Compound A-3]	Least Square Means Ratio, AUC∞ [1, 5]: 104.40%; Least Square Means Ratio, AUC∞ [1, 6]: 114.92%; Least Square Means Ratio, AUC∞ [1, 7]: 115.62%; AUC(0-inf) ([1]; Arm 3: FDC04): 914 ± 226 ng·h/mL; Tmax ([1]; Arm 3: FDC04): 3.5 h; Cmax [1, 11]: 197 ± 62.1 ng/mL; AUC(0-t) ([1]; Arm 4: FDC01): 909 ± 244 ng·h/mL; AUC(0-inf) ([1]; Arm 4: FDC01): 926 ± 245 ng·h/mL; Tmax ([1]; Arm 4: FDC01): 4 h; IC50 [2]: > 48 µM
19.6 ± 2.7 h	118.54%	133.00%	20.5 ± 3.3 h	121.29%	119.83%	20.2 ± 3.5 h	120.45%	121.37%	18.3 ± 3.5 h	498 ± 154 ng/mL	3910 ± 1150 ng·h/mL	4530 ± 1800 ng·h/mL	4 h	681 ± 268 ng/mL	4680 ± 1550 ng·h/mL	4370 ± 1340 ng·h/mL	4 h	598 ± 192 ng/mL	4710 ± 1310 ng·h/mL	C[C@]1(O)[C@H](n2ccc(=O)[nH]c2=O)O[C@](F)(CO)[C@H]1O [Compound A-1]	increase of exposure with dose [3]: less than proportionally; AUC(0-inf) ([1]; Arm 3: FDC04): 5380 ± 1560 ng·h/mL; Tmax ([1]; Arm 3: FDC04): 4 h; Cmax [1, 11]: 607 ± 208 ng/mL; AUC(0-t) ([1]; Arm 4: FDC01): 4690 ± 1420 ng·h/mL; AUC(0-inf) ([1]; Arm 4: FDC01): 4560 ± 787 ng·h/mL; Tmax ([1]; Arm 4: FDC01): 4 h; IC50 [2]: > 40 µM
